US7851484B2, “Certain chemical entities, compositions, and methods” (Cytokinetics, Inc., priority 2007, dated 2010)

The compounds below were run on SKM MF (assay: SKM MF AC1.4: ATPase screen of skeletal sarcomeric proteins with PK/LDH coupled enzyme system). Settings: not given.
Type: biochemical
Parameters: AC1.4 Median: unit not given here
Method: For example, test compounds can be assayed in a highly parallel fashion by using multiwell plates by placing the compounds either individually in wells or testing them in mixtures. Assay components including the target protein complex, coupling enzymes and substrates, and ATP can then be added to the wells and the absorbance or fluorescence of each well of the plate can be measured with a plate reader.
In some embodiments, the method uses a 384 well plate format and a 25 μL reaction volume. A pyruvate kinase/lactate dehydrogenase coupled enzyme system (Huang T G and Hackney D D. (1994) J Biol Chem 269(23):16493-501) can be used to measure the rate of ATP hydrolysis in each well. As will be appreciated by those in the art, the assay components are added in buffers and reagents. The incubation periods can be optimized to give adequate detection signals over the background. The assay can be done in real time giving the kinetics of ATP hydrolysis which increases the signal to noise ratio of the assay.
Just prior to screening, the actin, tropomyosin, and troponin complex are mixed together in the desired ratio (e.g., 7:1:1) to achieve maximal calcium regulation of the actin filament. The screen is conducted at a pCa=6.5. This calcium concentration is in the physiological range during muscle contraction.
To measure the generation of ADP during the reaction, a pyruvate kinase/lactate dehydrogenase/NADH coupled enzyme system (PK/LDH) is added to the actin. The myosin is kept separately. The plates are read in real time so that kinetic curves are obtained. These compounds are in DMSO and were already spotted onto the bottoms of 384 well plates at 10 to 40 μg/ml final concentration.

| Compound | SKM MF AC1.4 |
| --- | --- |
| CCC(CC)n1c(O)nc2ncc(C)cc21 [6-methyl-1-(pentan-3-yl)-1H-imidazo[4,5-b]pyridin-2-ol] | 5.7 µM |
| CCC(CC)n1c(O)nc2ncc(Cl)cc21 [6-chloro-1-(pentan-3-yl)-1H-imidazo[4,5-b]pyridin-2-ol] | 0.82 µM |
| CCC(CC)n1c(O)nc2ncc(Br)cc21 [6-bromo-1-(pentan-3-yl)-1H-imidazo[4,5-b]pyridin-2-ol] | 0.9 µM |
| CCC(CC)n1c(=O)[nH]c2ncccc21 [1-(pentan-3-yl)-1H-imidazo[4,5-b]pyridin-2(3H)-one] | 19.2 µM |

Same assay, conditions: median

| Compound | AC1.4 Median |
| --- | --- |
| 6-((1Z)prop-1-enyl)-1-(ethylpropyl)imidazo[4,5-b]pyridin-2-ol | 3.5145 |
| 1-(ethylpropyl)-6-methoxyimidazo[4,5-b]pyridin-2-ol | 24.0256 |
| 7-[(dimethylamino)methyl]-6-chloro-1-(ethylpropyl)benzimidazol-2-ol | 13.3270 |
| CCC(CC)n1c(O)nc2ncc(Cl)c(/C=N/OCC(C)C)c21 [7-[(1E)-2-(2-methylpropoxy)-2-azavinyl]-6-chloro-1-(ethylpropyl)imidazo[4,5-b]pyridin-2-ol] | 11.4532 |
| CCC(CC)(Cn1c(O)nc2ncc(Cl)cc21)c1ccccc1 [6-chloro-1-(2-ethyl-2-phenylbutyl)imidazo[4,5-b]pyridin-2-ol] | 11.0001 |
| COC(=O)c1c(Cl)cnc2nc(O)[nH]c12 [methyl 6-chloro-2-hydroxyimidazo[4,5-b]pyridine-7-carboxylate] | 1.7026 |
| CCC(CC)n1c(O)nc2ncc(C)cc21 [6-methyl-1-(pentan-3-yl)-1H-imidazo[4,5-b]pyridin-2-ol] | 10.2517 |
| CCC(CC)n1c(O)nc2ncc(Cl)c(/C=N\OCc3ccccc3)c21 [7-[(1Z)-2-(phenylmethoxy)-2-azavinyl]-6-chloro-1-(ethylpropyl)imidazo[4,5-b]pyridin-2-ol] | 42.0392 |
| 1-(ethylpropyl)-6-(1-methylvinyl)imidazo[4,5-b]pyridin-2-ol | 10.1217 |
| CC[C@@H](CCO)n1c(O)nc2ncc(Cl)c(I)c21 [1-((1S)-1-ethyl-3-hydroxypropyl)-6-chloro-7-iodoimidazo[4,5-b]pyridin-2-ol] | 37.2312 |
| COCCCCn1c(O)nc2ncc(Cl)cc21 [6-chloro-1-[(methoxymethyl)propyl]imidazo[4,5-b]pyridin-2-ol] | 45.5421 |
| CC(C)(Cc1ccccc1)n1c(O)nc2ncc(Cl)cc21 [1-(1,1-dimethyl-2-phenylethyl)-6-chloroimidazo[4,5-b]pyridin-2-ol] | 8.2080 |
| 6-chloro-1-(methylethyl)imidazo[4,5-b]pyridin-2-ol | 25.8589 |
| CCC(CC)Cn1c(O)nc2ncc(Cl)cc21 [6-chloro-1-(2-ethylbutyl)-1H-imidazo[4,5-b]pyridin-2-ol] | 25.2370 |
| 1-(ethylpropyl)imidazo[4,5-b]pyridine-2,6-diol | 7.8719 |
| CCC(CC)n1c(O)nc2ncc(Cl)c(C3=CCN(C(=O)OC(C)(C)C)CC3)c21 [tert-butyl 4-[6-chloro-1-(ethylpropyl)-2-hydroxyimidazo[4,5-b]pyridin-7-yl]-1,2,5,6-tetrahydropyridinecarboxylate] | 26.7443 |
| Oc1nc2ncc(Cl)cc2n1[C@H](Cc1ccccn1)CN1CCOCC1 [1-[(1R)-2-morpholin-4-yl-1-(2-pyridylmethyl)ethyl]-6-chloroimidazo[4,5-b]pyridin-2-ol] | 10.9895 |
| CCC(CC)n1c(O)nc2ncc(Cl)cc21 [6-chloro-1-(pentan-3-yl)-1H-imidazo[4,5-b]pyridin-2-ol] | 1.6866 |
| methyl 1-(ethylpropyl)-2-hydroxyimidazo[4,5-b]pyridine-7-carboxylate | 17.1735 |
| OC[C@@H](C1CCCCC1)n1c(O)nc2ncc(Cl)cc21 [1-((1R)-1-cyclohexyl-2-hydroxyethyl)-6-chloroimidazo[4,5-b]pyridin-2-ol] | 37.7104 |
| CCC(CC)n1c(O)nc2ncc(Br)cc21 [6-bromo-1-(pentan-3-yl)-1H-imidazo[4,5-b]pyridin-2-ol] | 1.1739 |
| CC(C)(C)n1c(O)nc2ncc(Cl)cc21 [1-(tert-butyl)-6-chloroimidazo[4,5-b]pyridin-2-ol] | 9.8213 |
| CCC(CC)n1c(O)nc2ncc(C(F)(F)F)cc21 [1-(ethylpropyl)-6-(trifluoromethyl)imidazo[4,5-b]pyridin-2-ol] | 47.6668 |
| CCc1cnc2nc(O)n(C(CC)CC)c2c1 [6-ethyl-1-(pentan-3-yl)-1H-imidazo[4,5-b]pyridin-2-ol] | 41.9678 |

| Compound | AC1.4 Median |
| --- | --- |
| CCC(CC)n1c(O)nc2ncc(Cl)c(/C=N/OCc3ccccc3)c21 [7-[(1E)-2-(phenylmethoxy)-2-azavinyl]-6-chloro-1-(ethylpropyl)imidazo[4,5-b]pyridin-2-ol] | 39.7159 |
| CCC(C(C)C)n1c(O)nc2ncc(Cl)cc21 (stereo not shown) [6-chloro-1-(1-ethyl-2-methylpropyl)imidazo[4,5-b]pyridin-2-ol] | 10.7918 |
| 1-(ethylpropyl)-6-(2-methylprop-1-enyl)imidazo[4,5-b]pyridin-2-ol | 35.3882 |
| CC[C@H](CCO)n1c(O)nc2ncc(Cl)cc21 [1-((1R)-1-ethyl-3-hydroxypropyl)-6-chloroimidazo[4,5-b]pyridin-2-ol] | 7.7806 |
| CC[C@H](CN=[N+]=[N-])n1c(O)nc2ncc(Cl)cc21 [1-((1R)-3-diazo-1-ethyl-3-azaprop-3-enyl)-6-chloroimidazo[4,5-b]pyridin-2-ol] | 11.2261 |
| CCC(CC)n1c(O)nc2ncc(Cl)c(/C=N\OCC(C)C)c21 [7-[(1Z)-2-(2-methylpropoxy)-2-azavinyl]-6-chloro-1-(ethylpropyl)imidazo[4,5-b]pyridin-2-ol] | 22.4644 |
| tert-butyl 4-[6-chloro-1-(ethylpropyl)-2-hydroxyimidazo[4,5-b]pyridin-7-yl]-4-hydroxypiperidinecarboxylate | 28.2335 |
| Oc1nc2ncc(Cl)cc2n1CCCC(F)(F)F [6-chloro-1-[(trifluoromethyl)propyl]imidazo[4,5-b]pyridin-2-ol] | 8.0408 |
| CCC(CC)n1c(O)nc2ncc(Cl)c(I)c21 [6-chloro-1-(ethylpropyl)-7-iodoimidazo[4,5-b]pyridin-2-ol] | 1.1778 |
| CC[C@@H](C)n1c(O)nc2ncc(Cl)cc21 [1-((1R)-1-methylpropyl)-6-chloroimidazo[4,5-b]pyridin-2-ol] | 10.6839 |
| 6-bromo-1-(ethylpropyl)-7-methylimidazo[4,5-b]pyridin-2-ol | 2.2135 |
| CCC(CC)n1c(O)nc2nc(Br)c(Br)cc21 [5,6-dibromo-1-(ethylpropyl)imidazo[4,5-b]pyridin-2-ol] | 9.8768 |
| CCOC(=O)CSSCc1c(Cl)cnc2nc(O)n(C(CC)CC)c12 [ethyl 2-({[6-chloro-1-(ethylpropyl)-2-hydroxyimidazo[4,5-b]pyridin-7-yl]methyl}disulfanyl)acetate] | 11.7273 |
| CCC(CC)n1c(O)nc2ncc(F)cc21 [6-fluoro-1-(pentan-3-yl)-1H-imidazo[4,5-b]pyridin-2-ol] | 12.9347 |
| C=CCn1c(O)nc2ncc(Cl)c(I)c21 [6-chloro-7-iodo-1-prop-2-enylimidazo[4,5-b]pyridin-2-ol] | 23.0211 |
| 1-(ethylpropyl)-6-prop-1-ynylimidazo[4,5-b]pyridin-2-ol | 27.8274 |
| CC[C@H](CN1CCOCC1)n1c(O)nc2ncc(Cl)cc21 [1-[(1R)-1-(morpholin-4-ylmethyl)propyl]-6-chloroimidazo[4,5-b]pyridin-2-ol] | 15.2631 |
| C=CCc1c(Cl)cnc2nc(O)n(C(CC)CC)c12 [6-chloro-1-(ethylpropyl)-7-prop-2-enylimidazo[4,5-b]pyridin-2-ol] | 3.6218 |
| CCC(CC)n1c(=O)[nH]c2ncccc21 [1-(pentan-3-yl)-1H-imidazo[4,5-b]pyridin-2(3H)-one] | 19.1998 |
| CCC(CC)n1c(O)nc2ncc(Cl)c(C#N)c21 [6-chloro-1-(ethylpropyl)-2-hydroxyimidazo[4,5-b]pyridine-7-carbonitrile] | 1.0215 |
| C=Cc1cnc2nc(O)n(C(CC)CC)c2c1 [1-(pentan-3-yl)-6-vinyl-1H-imidazo[4,5-b]pyridin-2-ol] | 3.0420 |
| C=C(C)c1c(Cl)cnc2nc(O)n(C(CC)CC)c12 [6-chloro-1-(ethylpropyl)-7-(1-methylvinyl)imidazo[4,5-b]pyridin-2-ol] | 1.8005 |
| CCC(CC(C)C)n1c(O)nc2ncc(Cl)cc21 (stereo not shown) [6-chloro-1-(1-ethyl-3-methylbutyl)imidazo[4,5-b]pyridin-2-ol] | 2.6422 |

Same assay, conditions: median value (footnote †)

| Compound | SKM MF AC1.4 (μM) |
| --- | --- |
| CCC(CC)Cn1c(O)nc2ncc(Cl)cc21 [6-chloro-1-(2-ethylbutyl)-1H-imidazo[4,5-b]pyridin-2-ol] | 25.237^† μM |
| CCc1cnc2nc(O)n(C(CC)CC)c2c1 [6-ethyl-1-(pentan-3-yl)-1H-imidazo[4,5-b]pyridin-2-ol] | 41.9678^† μM |
| CCC(CC)n1c(O)nc2ncc(F)cc21 [6-fluoro-1-(pentan-3-yl)-1H-imidazo[4,5-b]pyridin-2-ol] | 12.9347^† μM |
| C=Cc1cnc2nc(O)n(C(CC)CC)c2c1 [1-(pentan-3-yl)-6-vinyl-1H-imidazo[4,5-b]pyridin-2-ol] | 3.042^† μM |
